For one assay, the target named is T1, DNA polymerase α (Homo sapiens, UniProt P09884).
T1 construct: Human DNA polymerases, a, β, and γ, were purified from 5.0 ml of packed K562 cells; endogenous in cells; host or cells: K562 cells
Nature of the assay: Inhibition of [3H]dGTP incorporation into DNA by host DNA polymerase α. The format is biochemical. As to conditions: for IC50: incorporation of 1 µM [3H]dGTP into DNA. The method, then:
(§1) HSV DNA polymerase was purified from H.Ep.-2 cells infected with HSV-1. Approximately 4 x 10^8 cells were infected with virus at a multiplicity of infection of 10 CCID50/cell. After a 1 hr adsorption period, the unattached virus was waxhed from the cells and the cultures were returned to the incubator at 37°C for another 8 hr. The cells were collected by centrifugation and mixed with a 0.3 M potassium phosphate buffer, pH 7.5, containing 0.3% Triton X-100 and 10% glycerol. The HSV DNA polymerase was purified approximately 288-fold from this crude extract, as described by Derse et al. (J. Biol. Chem. 257:10251, 1982). The specific activity of the HSV DNA polymerase was 4140 units/mg protein. Human DNA polymerases, a, β, and γ, were purified from 5.0 ml of packed K562 cells grown in cell culture as previously described (Parker et al., J. Biol. Chem. 266:1754, 1991). The specific activities of DNA polymerases α, β, and γ used in these studies were approximately 34, 1600, and 8 units/mg protein, respectively. One unit of enzyme activity is defined as the amount of enzyme needed to incorporate 1 nmol of [^3H]dGTP into acid-precipitable material per hour at 37°C, using gapped DNA as a template. HSV DNA polymerase activity was measured in 50 µl volumes containing 50 mM Tris, pH 8.0, 3 mM MgCl2, 0.5 mM dithiothreitol, 0.2 mg/ml bovine serum albumin, 0.2 M KCl, 12.5 µg/ml gapped DNA, 10 µM [^3H]dGTP (12 Ci/mmol), and 100 µM each of dATP, dCTP, and TTP. DNA polymerase α activity was measured in 50 µl volumes containing 50 mM Tris, pH 8.0, 1 mg/ml bovine serum albumin, 10 mM MgCl2, 1 mM dithiothreitol, 100 µg/ml gapped duplex DNA, 10 µM [^3H]dGTP (1 Ci/mmol), and 50 µM of each dATP, dCTP and TTP. DNA polymerase β and γ activities were measured as described for DNA polymerase α, except that the reactions included 100 mM KCl. After incubation for the desired time, the DNA in each sample was precipitated onto glass fiber filters using a 5% trichloroacetic acid solution containing 10 mM pyrophosphate. The filters were then washed three times with this solution followed by two washes with 95% ethanol, dried, and counted for radioactivity.
(§2) 2'CdG-TP was a potent competitive inhibitor of the incorporation of [^3H]dGTP into DNA by both the HSV DNA polymerase and the host DNA polymerase α (Fig. 9).
(§3) Under similar incubation conditions, the concentration of D-2'CdG-TP required to inhibit the incorporation of 1 µM [^3H]dGTP into the DNA by 50% was 2 µM with DNA polymerase a, but was 2200 and 300 µM for DNA polymerase β and γ, respectively (Table 4). […]

Another assay concerns the target T2, HSV DNA polymerase (Human herpesvirus 1, UniProt P04293).
T2 construct: HSV DNA polymerase was purified from H.Ep.-2 cells infected with HSV-1; made in house; host or cells: H.Ep.-2 cells infected with HSV-1
The assay is described as follows: Inhibition of [3H]dGTP incorporation into DNA by purified HSV DNA polymerase. The format is biochemical, HSV-1. As to conditions: for IC50: incorporation of 1 µM [3H]dGTP into DNA. The method, then: as §1, §2, §3

The next assay deals with T3, DNA polymerase γ (Homo sapiens, UniProt P54098).
T3 sequence (P54098 26-1239): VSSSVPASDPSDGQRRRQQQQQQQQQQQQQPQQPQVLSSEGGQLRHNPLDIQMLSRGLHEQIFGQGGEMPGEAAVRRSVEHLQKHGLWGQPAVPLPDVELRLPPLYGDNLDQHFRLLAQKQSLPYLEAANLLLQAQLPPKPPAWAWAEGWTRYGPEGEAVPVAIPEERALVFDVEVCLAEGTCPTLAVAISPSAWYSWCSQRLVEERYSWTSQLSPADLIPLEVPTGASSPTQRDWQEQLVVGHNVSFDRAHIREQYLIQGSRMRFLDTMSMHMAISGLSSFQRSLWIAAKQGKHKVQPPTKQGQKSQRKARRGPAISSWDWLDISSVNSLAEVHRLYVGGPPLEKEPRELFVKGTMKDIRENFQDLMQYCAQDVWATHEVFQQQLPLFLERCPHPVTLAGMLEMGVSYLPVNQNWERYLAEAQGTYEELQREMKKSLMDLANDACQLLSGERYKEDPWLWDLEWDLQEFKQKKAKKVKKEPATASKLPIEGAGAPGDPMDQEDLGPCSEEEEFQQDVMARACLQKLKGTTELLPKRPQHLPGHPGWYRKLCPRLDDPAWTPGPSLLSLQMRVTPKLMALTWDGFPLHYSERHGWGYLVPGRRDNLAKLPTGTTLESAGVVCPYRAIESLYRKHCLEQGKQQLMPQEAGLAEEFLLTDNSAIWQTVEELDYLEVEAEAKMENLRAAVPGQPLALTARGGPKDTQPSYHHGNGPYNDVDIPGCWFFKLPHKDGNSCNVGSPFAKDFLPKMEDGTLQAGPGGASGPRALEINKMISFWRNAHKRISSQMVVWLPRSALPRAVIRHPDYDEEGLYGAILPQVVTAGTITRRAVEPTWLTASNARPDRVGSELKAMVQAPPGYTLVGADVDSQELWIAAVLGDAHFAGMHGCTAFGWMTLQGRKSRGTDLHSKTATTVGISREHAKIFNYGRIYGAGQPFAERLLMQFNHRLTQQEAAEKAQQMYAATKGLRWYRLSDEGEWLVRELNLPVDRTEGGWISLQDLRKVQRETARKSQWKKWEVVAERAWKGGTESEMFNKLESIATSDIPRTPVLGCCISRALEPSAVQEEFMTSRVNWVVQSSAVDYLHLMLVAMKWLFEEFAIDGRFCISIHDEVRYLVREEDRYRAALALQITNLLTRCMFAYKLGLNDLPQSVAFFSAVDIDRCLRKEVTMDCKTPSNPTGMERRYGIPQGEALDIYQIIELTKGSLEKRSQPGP
T3 sequence (Q9UHN1 26-485 partner): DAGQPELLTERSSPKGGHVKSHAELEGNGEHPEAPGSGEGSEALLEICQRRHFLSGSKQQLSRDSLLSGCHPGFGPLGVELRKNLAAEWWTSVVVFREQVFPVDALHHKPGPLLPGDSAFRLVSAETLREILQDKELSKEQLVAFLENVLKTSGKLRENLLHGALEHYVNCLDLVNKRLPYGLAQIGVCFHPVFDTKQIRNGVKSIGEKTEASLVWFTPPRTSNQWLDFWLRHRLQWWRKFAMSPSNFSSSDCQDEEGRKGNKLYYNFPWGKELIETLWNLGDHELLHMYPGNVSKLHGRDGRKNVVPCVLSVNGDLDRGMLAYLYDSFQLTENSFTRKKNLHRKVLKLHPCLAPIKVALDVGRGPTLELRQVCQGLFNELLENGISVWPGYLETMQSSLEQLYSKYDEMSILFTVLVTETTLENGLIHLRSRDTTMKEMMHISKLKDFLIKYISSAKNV
Nature of the assay: Inhibition of [3H]dGTP incorporation into DNA by DNA polymerase γ. Conditions: incorporation of 1 µM [3H]dGTP into DNA. The format is biochemical. The method, then:
(§4) HSV DNA polymerase was purified from H.Ep.-2 cells infected with HSV-1. Approximately 4 x 10^8 cells were infected with virus at a multiplicity of infection of 10 CCID50/cell. After a 1 hr adsorption period, the unattached virus was waxhed from the cells and the cultures were returned to the incubator at 37°C for another 8 hr. The cells were collected by centrifugation and mixed with a 0.3 M potassium phosphate buffer, pH 7.5, containing 0.3% Triton X-100 and 10% glycerol. The HSV DNA polymerase was purified approximately 288-fold from this crude extract, as described by Derse et al. (J. Biol. Chem. 257:10251, 1982). The specific activity of the HSV DNA polymerase was 4140 units/mg protein. […] HSV DNA polymerase activity was measured in 50 µl volumes containing 50 mM Tris, pH 8.0, 3 mM MgCl2, 0.5 mM dithiothreitol, 0.2 mg/ml bovine serum albumin, 0.2 M KCl, 12.5 µg/ml gapped DNA, 10 µM [^3H]dGTP (12 Ci/mmol), and 100 µM each of dATP, dCTP, and TTP. DNA polymerase α activity was measured in 50 µl volumes containing 50 mM Tris, pH 8.0, 1 mg/ml bovine serum albumin, 10 mM MgCl2, 1 mM dithiothreitol, 100 µg/ml gapped duplex DNA, 10 µM [^3H]dGTP (1 Ci/mmol), and 50 µM of each dATP, dCTP and TTP. DNA polymerase β and γ activities were measured as described for DNA polymerase α, except that the reactions included 100 mM KCl. […]

A further assay addresses T4, DNA polymerase β (Homo sapiens, UniProt P06746).
T4 construct: Human DNA polymerases, a, β, and γ, were purified from 5.0 ml of packed K562 cells; endogenous in cells; host or cells: K562 cells
The assay is described as follows: Inhibition of [3H]dGTP incorporation into DNA by DNA polymerase β. The format is biochemical. As to conditions: incorporation of 1 µM [3H]dGTP into DNA. The method, then:
as §4

Among the data in EP0684822B1, “CARBOCYCLIC DEOXYGUANOSINE ANALOGS FOR THE TREATMENT OF VIRAL INFECTIONS” (SOUTHERN RESEARCH INSTITUTE, priority 1993, dated 1994) are Ki/Km ratio, Ki and IC50 values, retold here.

T2 sequence (P10226 whole entry): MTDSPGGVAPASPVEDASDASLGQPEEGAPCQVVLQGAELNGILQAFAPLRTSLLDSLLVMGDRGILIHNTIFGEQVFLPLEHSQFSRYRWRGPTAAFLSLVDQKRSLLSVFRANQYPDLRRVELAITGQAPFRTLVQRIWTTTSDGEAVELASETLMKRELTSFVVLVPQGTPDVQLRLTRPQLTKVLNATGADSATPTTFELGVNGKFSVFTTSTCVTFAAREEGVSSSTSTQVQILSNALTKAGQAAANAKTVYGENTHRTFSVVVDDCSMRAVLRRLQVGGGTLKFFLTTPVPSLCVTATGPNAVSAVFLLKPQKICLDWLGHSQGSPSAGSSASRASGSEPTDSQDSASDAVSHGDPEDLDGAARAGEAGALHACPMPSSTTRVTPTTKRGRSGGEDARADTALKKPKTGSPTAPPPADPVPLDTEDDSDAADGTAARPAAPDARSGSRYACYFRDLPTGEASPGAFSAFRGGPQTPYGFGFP
T2 sequence (P04293 whole entry): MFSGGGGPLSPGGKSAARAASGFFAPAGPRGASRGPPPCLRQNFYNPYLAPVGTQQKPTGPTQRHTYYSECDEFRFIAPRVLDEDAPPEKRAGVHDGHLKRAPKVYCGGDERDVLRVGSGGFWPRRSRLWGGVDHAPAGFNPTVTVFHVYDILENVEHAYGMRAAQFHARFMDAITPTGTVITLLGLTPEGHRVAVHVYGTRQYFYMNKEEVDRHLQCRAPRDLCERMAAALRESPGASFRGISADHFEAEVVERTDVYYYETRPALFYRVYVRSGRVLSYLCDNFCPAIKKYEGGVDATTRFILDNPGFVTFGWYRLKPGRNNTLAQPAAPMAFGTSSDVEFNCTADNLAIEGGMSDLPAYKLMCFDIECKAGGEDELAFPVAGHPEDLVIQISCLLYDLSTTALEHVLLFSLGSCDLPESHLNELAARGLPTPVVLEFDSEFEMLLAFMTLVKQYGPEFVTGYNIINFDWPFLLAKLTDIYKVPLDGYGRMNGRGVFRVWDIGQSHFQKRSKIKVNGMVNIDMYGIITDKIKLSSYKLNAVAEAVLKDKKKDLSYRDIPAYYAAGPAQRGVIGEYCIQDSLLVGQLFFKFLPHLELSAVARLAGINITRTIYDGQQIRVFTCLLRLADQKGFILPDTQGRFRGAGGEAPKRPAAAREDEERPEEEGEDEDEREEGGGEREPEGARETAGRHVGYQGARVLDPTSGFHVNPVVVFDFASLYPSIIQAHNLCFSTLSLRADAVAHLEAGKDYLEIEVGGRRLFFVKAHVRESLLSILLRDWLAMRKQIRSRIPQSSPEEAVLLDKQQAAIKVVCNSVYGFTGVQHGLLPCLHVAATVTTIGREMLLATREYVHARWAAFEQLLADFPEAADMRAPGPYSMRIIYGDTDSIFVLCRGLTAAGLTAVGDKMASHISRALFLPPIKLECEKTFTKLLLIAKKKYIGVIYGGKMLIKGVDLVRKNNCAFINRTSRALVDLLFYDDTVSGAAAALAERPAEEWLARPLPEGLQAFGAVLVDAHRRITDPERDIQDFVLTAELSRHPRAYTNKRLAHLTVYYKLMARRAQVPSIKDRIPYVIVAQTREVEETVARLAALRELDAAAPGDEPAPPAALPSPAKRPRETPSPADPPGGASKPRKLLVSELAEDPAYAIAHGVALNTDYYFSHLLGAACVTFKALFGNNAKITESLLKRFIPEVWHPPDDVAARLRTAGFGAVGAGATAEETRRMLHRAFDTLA
T1 sequence (P09884 whole entry): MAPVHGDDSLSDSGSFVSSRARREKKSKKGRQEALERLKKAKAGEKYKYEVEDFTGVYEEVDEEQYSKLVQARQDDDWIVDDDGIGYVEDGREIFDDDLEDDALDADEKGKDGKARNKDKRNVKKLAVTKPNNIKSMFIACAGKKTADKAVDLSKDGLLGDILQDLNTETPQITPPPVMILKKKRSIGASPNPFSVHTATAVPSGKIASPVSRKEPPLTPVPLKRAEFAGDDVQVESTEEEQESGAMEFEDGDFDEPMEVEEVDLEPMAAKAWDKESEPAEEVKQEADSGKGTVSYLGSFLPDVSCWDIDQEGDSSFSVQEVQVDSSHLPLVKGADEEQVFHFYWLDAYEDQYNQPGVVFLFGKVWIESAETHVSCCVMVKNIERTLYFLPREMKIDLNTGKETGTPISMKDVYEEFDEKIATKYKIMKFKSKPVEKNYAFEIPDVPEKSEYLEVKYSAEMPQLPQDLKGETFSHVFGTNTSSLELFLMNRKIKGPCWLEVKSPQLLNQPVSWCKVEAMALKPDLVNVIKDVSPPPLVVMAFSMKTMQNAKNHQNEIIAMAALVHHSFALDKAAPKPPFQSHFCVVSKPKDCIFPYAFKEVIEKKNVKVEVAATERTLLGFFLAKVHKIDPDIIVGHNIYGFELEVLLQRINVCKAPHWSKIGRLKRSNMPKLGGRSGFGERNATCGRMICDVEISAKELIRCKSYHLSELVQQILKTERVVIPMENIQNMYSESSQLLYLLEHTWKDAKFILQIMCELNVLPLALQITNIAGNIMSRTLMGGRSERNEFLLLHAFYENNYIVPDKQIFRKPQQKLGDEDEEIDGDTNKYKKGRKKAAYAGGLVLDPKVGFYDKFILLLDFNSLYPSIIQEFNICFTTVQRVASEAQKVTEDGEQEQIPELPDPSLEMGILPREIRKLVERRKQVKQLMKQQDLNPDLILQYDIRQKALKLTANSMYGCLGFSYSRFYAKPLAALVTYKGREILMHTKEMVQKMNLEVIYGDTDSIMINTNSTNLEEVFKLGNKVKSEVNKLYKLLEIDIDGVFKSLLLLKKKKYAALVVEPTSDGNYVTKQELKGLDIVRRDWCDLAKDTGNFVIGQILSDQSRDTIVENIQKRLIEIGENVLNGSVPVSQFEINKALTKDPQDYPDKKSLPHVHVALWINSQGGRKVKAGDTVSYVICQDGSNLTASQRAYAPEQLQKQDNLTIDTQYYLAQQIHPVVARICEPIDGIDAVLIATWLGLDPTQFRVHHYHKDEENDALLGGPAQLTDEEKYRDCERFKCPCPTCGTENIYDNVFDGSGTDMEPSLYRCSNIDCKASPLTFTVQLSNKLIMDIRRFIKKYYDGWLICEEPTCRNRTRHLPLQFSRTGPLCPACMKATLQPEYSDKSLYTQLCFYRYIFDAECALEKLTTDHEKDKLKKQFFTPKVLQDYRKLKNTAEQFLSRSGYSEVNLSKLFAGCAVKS
T1 sequence (Q14181 whole entry partner): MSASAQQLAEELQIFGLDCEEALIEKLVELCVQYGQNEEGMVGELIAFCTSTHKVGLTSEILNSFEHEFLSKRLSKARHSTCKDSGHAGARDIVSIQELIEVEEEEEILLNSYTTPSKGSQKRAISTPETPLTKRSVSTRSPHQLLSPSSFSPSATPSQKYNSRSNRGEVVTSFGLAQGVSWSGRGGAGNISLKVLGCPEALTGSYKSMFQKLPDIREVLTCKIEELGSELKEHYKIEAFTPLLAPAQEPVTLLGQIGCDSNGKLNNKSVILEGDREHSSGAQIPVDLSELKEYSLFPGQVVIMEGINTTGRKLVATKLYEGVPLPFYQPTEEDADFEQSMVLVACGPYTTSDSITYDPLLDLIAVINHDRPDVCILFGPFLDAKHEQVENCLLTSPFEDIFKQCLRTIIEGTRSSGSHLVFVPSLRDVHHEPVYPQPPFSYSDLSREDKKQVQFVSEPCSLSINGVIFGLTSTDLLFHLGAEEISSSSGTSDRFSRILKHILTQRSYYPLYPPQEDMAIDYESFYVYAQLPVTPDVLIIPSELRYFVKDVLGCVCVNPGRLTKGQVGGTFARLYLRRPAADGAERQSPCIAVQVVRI
T1 sequence (P49642 whole entry partner): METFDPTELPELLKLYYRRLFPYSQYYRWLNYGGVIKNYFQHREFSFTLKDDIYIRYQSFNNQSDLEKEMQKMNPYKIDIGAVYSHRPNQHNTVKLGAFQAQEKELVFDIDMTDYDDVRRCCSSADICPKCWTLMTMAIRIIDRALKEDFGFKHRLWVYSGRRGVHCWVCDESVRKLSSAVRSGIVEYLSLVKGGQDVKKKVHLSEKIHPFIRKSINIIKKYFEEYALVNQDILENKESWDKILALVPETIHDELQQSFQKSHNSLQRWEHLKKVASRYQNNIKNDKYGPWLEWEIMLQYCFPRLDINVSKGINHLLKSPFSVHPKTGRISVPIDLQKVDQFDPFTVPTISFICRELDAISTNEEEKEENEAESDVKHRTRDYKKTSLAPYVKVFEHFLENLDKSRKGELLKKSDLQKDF
T1 sequence (P49643 whole entry partner): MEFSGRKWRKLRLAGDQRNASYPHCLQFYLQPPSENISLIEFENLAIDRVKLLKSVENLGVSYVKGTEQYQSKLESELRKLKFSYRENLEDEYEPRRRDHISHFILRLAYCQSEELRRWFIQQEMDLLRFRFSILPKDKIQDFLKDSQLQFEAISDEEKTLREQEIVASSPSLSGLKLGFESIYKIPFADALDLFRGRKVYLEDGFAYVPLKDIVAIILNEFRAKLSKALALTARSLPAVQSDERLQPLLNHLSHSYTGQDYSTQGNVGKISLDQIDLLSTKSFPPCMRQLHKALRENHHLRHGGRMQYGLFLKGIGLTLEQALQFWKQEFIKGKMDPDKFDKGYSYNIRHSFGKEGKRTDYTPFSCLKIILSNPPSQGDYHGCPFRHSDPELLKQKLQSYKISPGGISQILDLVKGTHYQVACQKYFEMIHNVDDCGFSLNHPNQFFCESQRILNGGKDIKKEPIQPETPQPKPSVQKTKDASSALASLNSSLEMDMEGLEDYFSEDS

`Nc1nc2c(ncn2[C@@H]2C[C@H](COP(=O)(O)OP(=O)(O)OP(=O)(O)O)[C@@H](O)C2)c(=O)[nH]1` [D-2'CdG-TP]: the Ki/Km ratio entry at DNA polymerase α (Km of dGTP) and at HSV DNA polymerase (Km of dGTP) was “approximately 1” throughout. Moreover, the Ki on DNA polymerase α (competitive with [3H]dGTP) stood at 0.95 µM; on HSV DNA polymerase (competitive with [3H]dGTP), 0.35 µM. Besides, the figures for the IC50 at DNA polymerase α, against HSV DNA polymerase and against DNA polymerase γ were 2 µM, 1.5 µM and 300 µM, respectively.
As to `Nc1nc2c(ncn2[C@H]2C[C@@H](COP(=O)(O)OP(=O)(O)OP(=O)(O)O)[C@H](O)C2)c(=O)[nH]1` [L-2'CdG-TP], the half-maximal inhibitory concentration (IC50) against DNA polymerase β amounted to 1400 µM; at DNA polymerase α it was 470 µM; against HSV DNA polymerase, 460 µM; on DNA polymerase γ, 215 µM.
